Data on 33 compounds can be found in US20250136556A1, “NOVEL MODULATORS OF THE ARYL HYDROCARBON RECEPTOR AND METHODS OF USE THEREOF” (Allianthera (Suzhou) Biopharmaceutical Co., Ltd., priority 2021, published 2025).

For the test, the target named is T1, Human Aryl Hydrocarbon Receptor (AHR) (Homo sapiens, UniProt P35869).
T1 construct: purchased INDIGO Bioscience IB06001-32; host or cells: AHR Reporter Cell (proprietary kit cells)
T1 sequence (P35869 11-848): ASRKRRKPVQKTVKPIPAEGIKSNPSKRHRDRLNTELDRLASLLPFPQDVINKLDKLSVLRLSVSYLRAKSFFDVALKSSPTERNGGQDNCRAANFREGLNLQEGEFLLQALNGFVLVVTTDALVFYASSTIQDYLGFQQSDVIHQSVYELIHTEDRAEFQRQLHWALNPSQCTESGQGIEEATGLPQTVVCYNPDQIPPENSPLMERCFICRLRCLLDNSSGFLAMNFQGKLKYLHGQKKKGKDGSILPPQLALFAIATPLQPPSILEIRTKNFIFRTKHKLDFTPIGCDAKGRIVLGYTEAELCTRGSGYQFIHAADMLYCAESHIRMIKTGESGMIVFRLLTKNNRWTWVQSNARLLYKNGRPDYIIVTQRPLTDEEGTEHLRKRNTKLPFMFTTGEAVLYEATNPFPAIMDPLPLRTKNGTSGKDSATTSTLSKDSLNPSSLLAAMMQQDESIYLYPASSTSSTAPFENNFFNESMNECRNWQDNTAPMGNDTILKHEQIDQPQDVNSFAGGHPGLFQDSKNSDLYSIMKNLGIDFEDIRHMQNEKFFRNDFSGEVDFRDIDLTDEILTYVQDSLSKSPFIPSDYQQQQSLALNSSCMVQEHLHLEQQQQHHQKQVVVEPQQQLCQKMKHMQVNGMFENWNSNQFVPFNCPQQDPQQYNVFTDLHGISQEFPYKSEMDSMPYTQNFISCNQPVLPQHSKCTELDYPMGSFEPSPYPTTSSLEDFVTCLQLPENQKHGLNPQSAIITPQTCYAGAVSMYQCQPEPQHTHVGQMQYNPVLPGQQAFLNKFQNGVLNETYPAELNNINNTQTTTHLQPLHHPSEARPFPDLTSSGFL
In words: AHR agonist reporter assay in human cell line (INDIGO luciferase reporter).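 Further: firefly luciferase luminescence read on a plate reader, values normalized against positive and negative controls.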 Type of test: cell-based. As to conditions: reporter cells, 24 hours incubation, second line of cell; read-out: AHR abEC50.
Experimental: The AHR reporter assay was performed following the protocol of the Human Aryl Hydrocarbon Receptor (AHR) Reporter Assay System (INDIGO Bioscience, #IB06001-32). AHR Reporter Cell was thawed and pre-incubated in Cell Recovery Medium (CRM) for 6 hours. […] Following 24 hours incubation, the media was removed and Luciferase Detection Reagent (LDR) added. The firefly luciferase activity was quantified using a plate reader. Results were normalized by positive and negative controls.
Consider `CC(C)c1c(O)cc(-c2cc3ccccc3nc2C#N)cc1O` [Compound 28], for which the EC50 is > 100 nM.
Under `CC(C)n1c(O)cc(/C=C/c2ccccc2)cc1=O` [Compound 105, (E)-6-hydroxy-1-isopropyl-4-styrylpyridin-2(1H)-one] stands > 400 nM; under `COc1ccc2ccc(-c3cnc(C(C)C)c(O)c3)cc2n1` [Compound 78], > 100 nM; under `COc1cc(-c2cnc(C(C)C)c(O)c2)cc2cccnc12` [Compound 69], > 100 nM.
Under `CC(C)c1ncc(-c2ccnc3ccc(F)cc23)cc1O` [Compound 55] stands > 100 nM; under `CNc1ccnc2ccc(-c3cc(O)c(C(C)C)c(O)c3)cc12` [Compound 16], > 100 nM.
Take `CC(C)c1ncc(-c2ccc3nccc(C#N)c3c2)cc1O` [Compound 81]: the EC50 is > 100 nM.
For `CC(C)c1ncc(-c2ccc3nccc(F)c3c2)cc1O` [Compound 59], the EC50 is > 100 nM.
As for `COc1cc(/C=C/c2ccccc2)cc(O)c1C(C)C` [Compound 137], the figure is < 8 nM; as for `CC(C)c1c(O)cc(-c2cccc3cc(F)c(O)nc23)cc1O` [Compound 5], 78.7 nM.
As for `CC(C)c1c(O)cc(-c2ccc3ncccc3c2F)cc1O` [Compound 10], the figure is 33.4 nM.
As for `CC(C)c1c(O)cc(Sc2ccccc2)cc1O` [Compound 129, 2-isopropyl-5-(phenylthio) benzene-1,3-diol], the figure is > 400 nM; as for `CC(C)c1c(O)cc(-c2cc(C(F)(F)F)c3cc(F)ccc3n2)cc1O` [Compound 1], 25.2 nM.
In the case of `CC(C)c1c(O)cc(-c2cncc3ccc(F)cc23)cc1O` [Compound 32], the EC50 was > 100 nM.
Regarding `CC(C)c1ncc(-c2cnc3ccccc3c2)cc1N` [Compound 120, 2-isopropyl-5-(quinolin-3-yl) pyridin-3-amine], the EC50 was > 100 nM.
Under `CC(C)c1ncc(-c2cc3ccccc3nc2C#N)cc1O` [Compound 79] stands > 100 nM.
Consider `CC(C)c1c(O)cc(-c2cccc3ccc(C(=O)O)nc23)cc1O` [Compound 25], for which the EC50 is > 100 nM.
As for `CC(C)c1c(O)cc(-c2cc3cccnc3cc2F)cc1O` [Compound 7], the figure is > 100 nM; as for `CC(C)c1ncc(-c2c(Cl)cc3c(O)ncnc3c2F)cc1O` [Compound 89], > 100 nM; as for `CC(=O)c1c(O)cc(/C=C/c2ccccc2)cc1O` [Compound 108], 143 nM.
Under `CC(C)c1ncc(-c2nc3ccccc3[nH]2)cc1O` [Compound 101] stands 94.4 nM; under `CC(C)c1c(O)cc([S+]([O-])c2ccccc2)cc1O` (stereo not drawn) [Compound 130, 2-isopropyl-5-(phenylsulfinyl) benzene-1,3-diol], > 400 nM.
As for `CC(C)c1c(O)cc(-c2ccnc3ccc(F)cc23)cc1O` [Compound 4], the figure is > 100 nM.
For the compound `CC(C)c1c(O)cc(-c2ccnc3c(F)cccc23)cc1O` [Compound 3], the EC50 is > 100 nM.
As for `FC(F)(F)c1ccc(Nc2nccc(-c3cccc(Cl)c3)n2)cc1` [Reference, reference compound], the figure is 17.1 nM; as for `CC(C)c1c(O)cc(-c2cnc3c(F)cc(N)cc3c2)cc1O` [Compound 2], > 100 nM.
As for `CC(C)c1ncc(-c2ccc(F)c3ccc(C(F)(F)F)nc23)cc1O` [Compound 64], the figure is > 100 nM; as for `CC(C)c1ncc(-c2nc3ccccc3[nH]2)cc1N` [Compound 134], 101 nM; as for `CC(C)c1c(O)cc(-c2ccnc3c(Cl)cccc23)cc1O` [Compound 17], > 100 nM.
On to `CC(C)c1c(O)cc(-c2cc3cnccc3cc2F)cc1O` [Compound 34], for which the EC50 is > 100 nM.
Turning to `CC(C)c1ncc(-c2cc(C(F)(F)F)c3cc(F)ccc3n2)cc1O` [Compound 52], the EC50 is > 100 nM.
As for `CC(C)c1c(O)cc(-c2cccc3ncccc23)cc1O` [Compound 20], the figure is > 100 nM.
As for `Cc1ccnc2c(-c3cnc(C(C)C)c(O)c3)ccnc12` [Compound 94], the figure is > 100 nM.
